In patent US8524674B2, “Method of improving the conditioned reflex habit, the muscle tonus, or the motion coordination of a patient after suffering trauma to the brain cortex” (Obschestvo S Ogranichennoi Otvetstvennostyu “Sia Peptides”, priority 2006, dated 2013):
“And” between values parts separate entries of the source, which are not always exact repeats. Equal entries are not always repeated. Residues, ends and D or L forms follow the SMILES beside them.

Assays:
[1] = test system: white mongrel male mice; settings: mouse, in vivo
Method: The study of acute toxicity was performed on 72 white mongrel male mice with body weight of 20-22 g. The animals were randomly subdivided into 6 equal groups. The substance was administered to the animals once, intramuscularly, in the doses of 1 mg/kg, 2 mg/kg, 3 mg/kg, 4 mg/kg, 5 mg/kg in 0.25 ml of sterile 0.9% NaCl solution. The control animals received 0.9% NaCl solution in the same volume.

[2] = test system: white mongrel male rats; assay: Study of sub-acute toxicity, 90 days; type: in vivo; settings: long-term administration, doses exceeding the therapeutic one by 100-1000 times
Method: The study of sub-acute toxicity was performed on 65 white mongrel male rats with body weight of 160-210 g. […] Morphology and properties of the animals' peripheral blood were studied before the administration of the substance, as well as on the 30th, 60th and 90th day after the beginning of the administration. Upon completion of the experiment biochemical and coagulologic indices of the blood were also evaluated.

[3] = test system: brain cortex explants; assay: Development of brain cortex explants (area index); type: cell-based, Wistar rats
Method: This study was performed on 32 fragments of brain cortex from Wistar rats with body weight of 150-200 g. Nutritional medium for explants cultivation consisted of 35% Eagle's solution, 25% calf fetal serum, 35% Hank's solution, 5% chicken embryonic extract, with the addition of glucose (0.6%), insulin (0.5 units/ml), penicillin (100 units/ml), glutamine (2 mM). […] Peptide H-Glu-Asp-Arg-OH was added into the medium, reaching ultimate concentration of 1, 10 and 100 ng/ml.
Area index (AI), i.e. the ratio of total explant area together with the growth zone to the initial area of brain cortex fragment served as the criterion of biologic activity. The statistical significance of the difference between the compared mean AI values was evaluated using Student's t-criterion. AI values were expressed in percent, control AI values being considered as 100%.

[4] = test system: rats with heavy compression cranial trauma; assay: Reparative processes in rat brain cortex after acute heavy cranial trauma (CAAR, rotating rod); type: in vivo, white mongrel rats
Text: The effect of peptide H-Glu-Asp-Arg-OH on reparative processes in the brain was estimated on the pattern of acute heavy cranial trauma. The dynamics of central nervous system functions restoration were identified by testing motion coordination and muscle tonus of the animals, as well as their ability to learning and reproducing the conditioned reflex habit.
24 white mongrel rats were subjected to heavy compression cranial trauma from a falling leaden bob.
The estimation of the rats' ability to learn and reproduce the habits was performed using the test of conditioned active avoidance reflex (CAAR). Muscle tonus and motion coordination were tested by rotating the rats on a rod with increasing speed and measuring the time of their holding on to the rod.

[5] = test system: rats with spinal cord trauma; assay: Morphologic alterations in the central nervous system in spinal cord trauma; type: in vivo, Wistar rats
Method: The study was performed on mature Wistar rats of both sexes with body weight of 180-200 g. The experimental group of 27 rats was subjected to spinal cord trauma.
The animals were injured in the lumbar segment of the spinal cord according to the following method. The lateral surfaces of anesthetized rats' vertebrae on the level of the last rib were compressed through the skin using dressing forceps with a force of 15 kg on the working surfaces. In 24 hours after the trauma the surviving animals were subdivided into 2 groups.
The rats of the second group (control) received sterile physiological saline solution in the same volume.
Neurohistological studies were performed in the animals of both groups on the 30th day of the experiment. For this purpose spinal cord ganglia were taken from the spots of injury and above the injured spots, as well as lumbar and cervical segments of the spinal cord and motor cortex fragments and pyramid tracts of the brain. Neurohistological studies were performed using electronic and luminous microscopy.
The samples intended for luminous microscopy were fixed in 96% spirit and 10% formalin, then packed into celloidin with subsequent staining with hematoxylin-eosine, as well as staining by Nissle, Van Gison, Weigert, Spielmeyer. The samples were fixed and cut in accordance with conventional methods of histological processing and staining of the samples.
The samples intended for electronic microscopy were fixed by 2% osmic acid with cacodylate buffer, then packed in Epon 812 and contrasted in lead […] by Reynolds. The preliminary evaluation of the samples was performed using semifine sections. Ultrafine sections were studied using electronic microscope UEM-100SKh.

[6] = test system: rat brain cortex in hypoxia; assay: Free radical oxidation reactions in rat brain cortex in hypoxia; type: in vivo, white mongrel rats
Method: The study was performed on 18 white mongrel rats. Peptide H-Glu-Asp-Arg-OH was administered to the animals intraperitoneally, in the dose of 1 μg in 1.0 ml of sterile physiological 0.9% NaCl solution once a day for 10 days. 24 hours after the completion of peptide administration the animals were subjected to hypoxic hypoxia. Hypoxia was modeled in the altitude chamber of flow-ejector type, the atmosphere pressure in the chamber being 0.029 MPa, which corresponds to the altitude of 9000 m above sea level. Compression and decompression rate made 0.005 MPa per minute. Carbon dioxide and moisture absorbent was present in the altitude chamber. The animals were held in the chamber for 3 hours in the conditions of free conduct and under constant observation.
The intensity of peroxide lipid oxidation (POL) was estimated judging by the level of initial POL products, i.e. diene conjugates, and terminal products, i.e. Schiff's bases, playing a significant role in neurons damage. The level of protein peroxidation was estimated by the level of carbonyl derivative amino acids in proteins after interaction with 2,4-dinitrophenylhydrazine.

[7] = test system: isolated neurons of Astacus leptodactilus crayfish; assay: Life span of isolated crayfish neurons; type: cell-based; settings: 10 μg/ml
Method: Isolated neurons of Astacus leptodactilus crayfish for the in vitro study of peptide H-Glu-Asp-Arg-OH on their life span were extracted by axotomia, being regarded as a model of cell death by apoptosis.
Stretching receptor neurons of a crayfish closely resemble central neurons of vertebrals by their electrophysiological, biological and structure properties. They generate spikes with nearly constant rate during 10-15 hours. Two symmetrical neurons (control and experimental) extracted from the abdominal segment were placed into 2 ml chambers filled with Harreveld's solution. Neuronal potentials were registered extracellularly on the axons by fastened glass pipette electrodes, then amplified and recorded using H-338 recorder. At the same time the frequency of action potentials was registered using two-channel analog frequency meter and H-339 data recorders. In the beginning of the experiment impulse frequency of experimental and control neurons was set on the level of 10-15 Hz by the stretching of the muscle. After 1 hour of stabile spike generation with constant rate peptide H-Glu-Asp-Arg-OH in the concentration of 10 μg/ml was added into the experimental chamber. The activity of the neurons was constantly recorded before the spontaneous termination of spikes generation. Life span of neurons was compared for each couple. Altogether 10 couples of neurons were used.

[8] = test system: patients with remote consequences of cranial trauma; assay: Efficacy in patients with consequences of cranial trauma (clinical result, corrective test, EEG alpha index); type: in vivo; settings: patients of the main groups after treatment
Method: This study was performed on 25 patients aged 31-60 with remote consequences of cranial trauma, who were randomly subdivided into 2 groups. These patients sustained cranial traumas from 1 to 10 years ago. Main group patients were subdivided into 3 groups depending on the severity of their cranial trauma. Patients with the most severe consequences of cranial trauma received the pharmaceutical composition containing peptide H-Glu-Asp-Arg-OH once a day, intramuscularly, in the dose of 5.0 mg in 1 ml of sterile 0.9% NaCl solution for 10 days. Main group patients with cranial trauma consequences of intermediate severity were treated with the pharmaceutical composition containing peptide H-Glu-Asp-Arg-OH once a day, intramuscularly, in the dose of 10.0 μg in 1 ml of sterile 0.9% NaCl solution for 10 days. Main group patients with mild consequences of cranial trauma received the pharmaceutical composition containing peptide H-Glu-Asp-Arg-OH once a day, intramuscularly, in the dose of 1.0 μg in 1.0 ml of sterile 0.9% NaCl solution for 10 days.
The efficacy of the pharmaceutical composition containing H-Glu-Asp-Arg-OH peptide was estimated judging by the effect on integral function of the brain, i.e., attention, and on bioelectric activity of the brain using the corrective test and electroencephalogram.
The evaluation of the effect of pharmaceutical composition containing peptide H-Glu-Asp-Arg-OH on bioelectric activity of the brain was performed by means of calculating the alpha index before and after the treatment.

[9] = test system: male guinea pigs; settings: guinea pig, in vivo
Method: (§1) The studies of chronic toxicity were conducted for 6 months, basing on the term of recommended clinical administration of the substance, on 84 male guinea pigs with body weight of 270-310 g. Experimental animals received the peptide daily, once a day, intramuscularly, for 6 months in the doses of 1 μg/kg, 0.1 mg/kg, 1 mg/kg in 0.5 ml of sterile 0.9% NaCl solution. Control animals received sterile 0.9% NaCl solution in the same volume and by the same schedule. Traditional methods were used for the evaluation of the following indices of the animals' peripheral blood: the quantity of erythrocytes, hemoglobin, reticulocytes, thrombocytes, leukocytes, leukocyte formula, erythrocyte sedimentation rate (ESR), erythrocyte resistance. Alongside with that, the content of total protein in the serum was identified using Lowry's method, as well as potassium and sodium content using the method of plasma spectrophotometry. After the completion of the experiment pathomorphologic studies of animal brain and spinal cord, spinal cord ganglia, thyroid gland, parathyroid glands, adrenal glands, testis, pituitary body, heart, lungs, aorta, liver, kidneys, urinary bladder, pancreas, stomach, small intestine, large intestine, thymus, spleen, lymph nodes and bone marrow were performed.

[10] = test system: male guinea pigs; assay: Study of chronic toxicity, 6 months; settings: guinea pig, in vivo
Method: as §1

[11] = 10 μg/kg intramuscularly daily for 10 days, 30th day
[12] = 1 μg intraperitoneally once a day for 10 days, then hypoxia

## N=C(N)NCCC[C@H](NC(=O)[C@H](CC(=O)O)NC(=O)[C@@H](N)CCC(=O)O)C(=O)O [peptide H-Glu-Asp-Arg-OH, glutamyl-aspartyl-arginine] (H-Glu-Asp-Arg-OH)
[1]
  toxic reactions: does not cause toxic reactions
[2]
  side effects, subacute toxicity: absence of any side effects
[3]; 10 ng/ml, 3rd day of cultivation, statistically significant
  Area index (AI) growth as compared to the control: 37%
[3]; after 7 days of cultivating, same concentrations
  neurites stimulation of cortex explants: same effects of neurites stimulation
[4]; 48 hours after the trauma, 10 μg/kg intramuscularly
  time of holding on to the rod relative to the control (rotating rod test): more than 2 times
[4]; 96 hours after the trauma, 10 μg/kg intramuscularly, CAAR test
  number of animals capable of learning relative to the control: 2 times
[4]; by the 14th day after the trauma
  indices of the animals' learning ability: close to normal values
[4]; in 30 days, 10 μg/kg intramuscularly
  indices of learning ability: higher than in the control
[5]; [11]
  alterations in nerve cells and outgrowths of upper spinal cord segments: less pronounced
  neuronal cell cytoplasm, electronic microscopy: signs of restoration in the neuronal cells cytoplasm
[5]; 10 μg/kg intramuscularly daily for 10 days, 30th day, luminous microscopy, control showed much more heavy and ischemic alterations
  type of neuronal alterations in the spinal cord at the injury spot: mainly “primarily irritated” cells
[5]; animals with spinal cord trauma
  effect on spinal cord neurons regeneration: stimulating effect on spinal cord neurons regeneration
[6]; [12]
  Diene conjugates: 28.57 ± 1.84 nmole/g of tissue
  Level of proteins peroxidation: 4.68 ± 0.07 μmole/mg of protein
  Schiff's bases: 255.4 ± 26.8 conv. units/g of tissue
[6]; hypoxia, vs control
  change in Schiff's bases content: tendency towards a decrease
  change in the level of diene conjugates: statistically significant decrease
  protein peroxidation: inhibited protein peroxidation
[7]; control 11.9 hours
  Life span of isolated crayfish neurons: 13.7 h and 13.7 ± 0.2 h
[7]; vs control
  prolongation of the life span of isolated neurons: 15%
[8]; before treatment 12.6 ± 1.3
  Number of mistakes (corrective test): 6.4 ± 1.1
[8]; before treatment 35.7 ± 4.6
  Alpha index (EEG): 47.9 ± 3.1
[8]; before treatment 1519.1 ± 141.7
  Number of registered signs (corrective test): 2429.6 ± 105.3
[9]
  changes in blood morphology and biochemical indices: no statistically significant changes
  side effects, chronic toxicity: absence of any side effects
[10]
  pathologic alterations in the organism (general status, blood indices, organ morphology, cardiovascular, respiratory, liver and kidney functions): no pathologic alterations
